Measured values published in the NIST ThermoML archive (doi:10.1016/j.jct.2016.03.026).
± gives the expanded uncertainty stated by the source.

Test: xn = mol fraction of the nth substance listed
Conditions: 313.15 K, Fluid (supercritical or subcritical phases), Vibrating tube method, x1 = 0.97

O=C=O [carbon dioxide] + CO
Conditions | mass density [kg/m3]
11150 kPa | 721.68 ± 0.83
11175 kPa | 722.44 ± 0.83
11200 kPa | 723.12 ± 0.83
11225 kPa | 723.83 ± 0.83
11250 kPa | 724.5 ± 0.83
11275 kPa | 725.17 ± 0.83
11300 kPa | 725.87 ± 0.83
11325 kPa | 726.55 ± 0.83
11350 kPa | 727.24 ± 0.83
11375 kPa | 727.87 ± 0.83
11400 kPa | 728.58 ± 0.83
11425 kPa | 729.26 ± 0.83
11450 kPa | 729.89 ± 0.83
11475 kPa | 730.56 ± 0.83
11500 kPa | 731.23 ± 0.83
11525 kPa | 731.88 ± 0.83
11550 kPa | 732.54 ± 0.83
11575 kPa | 733.12 ± 0.83
11600 kPa | 733.75 ± 0.83
11625 kPa | 734.36 ± 0.83
11650 kPa | 734.97 ± 0.83
11675 kPa | 735.62 ± 0.83
11700 kPa | 736.24 ± 0.83
11725 kPa | 736.79 ± 0.83
11750 kPa | 737.41 ± 0.83
11775 kPa | 738.01 ± 0.83
11800 kPa | 738.59 ± 0.83
11825 kPa | 739.2 ± 0.83
11850 kPa | 739.81 ± 0.83
11875 kPa | 740.42 ± 0.83
11900 kPa | 741.01 ± 0.83
11925 kPa | 741.62 ± 0.83
11950 kPa | 742.23 ± 0.83
11975 kPa | 742.81 ± 0.83
12000 kPa | 743.38 ± 0.83
12025 kPa | 743.98 ± 0.83
12050 kPa | 744.51 ± 0.83
12075 kPa | 745.12 ± 0.83
12100 kPa | 745.65 ± 0.83
12125 kPa | 746.23 ± 0.83
12150 kPa | 746.78 ± 0.83
12175 kPa | 747.4 ± 0.83
12200 kPa | 747.95 ± 0.83
12225 kPa | 748.48 ± 0.83
12250 kPa | 749.04 ± 0.83
12275 kPa | 749.5 ± 0.83
12300 kPa | 750.05 ± 0.83
12325 kPa | 750.56 ± 0.83
12350 kPa | 751.14 ± 0.83
12375 kPa | 751.63 ± 0.83
12400 kPa | 752.14 ± 0.83
12425 kPa | 752.63 ± 0.83
12450 kPa | 753.18 ± 0.83
12475 kPa | 753.64 ± 0.83
12500 kPa | 754.12 ± 0.83
12525 kPa | 754.59 ± 0.83
12550 kPa | 755.09 ± 0.83
12575 kPa | 755.53 ± 0.83
12600 kPa | 756 ± 0.83
12625 kPa | 756.47 ± 0.83
12650 kPa | 756.92 ± 0.83
12675 kPa | 757.39 ± 0.83
12700 kPa | 757.86 ± 0.83
12725 kPa | 758.3 ± 0.83
12750 kPa | 758.68 ± 0.83
12775 kPa | 759.12 ± 0.83
12800 kPa | 759.54 ± 0.83
12825 kPa | 759.98 ± 0.83
12850 kPa | 760.36 ± 0.83
12875 kPa | 760.82 ± 0.83
12900 kPa | 761.3 ± 0.83
12925 kPa | 761.76 ± 0.83
12950 kPa | 762.23 ± 0.83
12975 kPa | 762.72 ± 0.83
13000 kPa | 763.15 ± 0.83
13025 kPa | 763.58 ± 0.83
13050 kPa | 764.07 ± 0.83
13075 kPa | 764.54 ± 0.83
13100 kPa | 764.93 ± 0.83
13125 kPa | 765.37 ± 0.83
13150 kPa | 765.86 ± 0.83
13175 kPa | 766.29 ± 0.83
13200 kPa | 766.75 ± 0.83
13225 kPa | 767.22 ± 0.83
13250 kPa | 767.6 ± 0.83
13275 kPa | 768.04 ± 0.83
13300 kPa | 768.47 ± 0.83
13325 kPa | 768.93 ± 0.83
13350 kPa | 769.37 ± 0.83
13375 kPa | 769.83 ± 0.83
13400 kPa | 770.23 ± 0.83
13425 kPa | 770.69 ± 0.83
13450 kPa | 771.07 ± 0.83
13475 kPa | 771.5 ± 0.83
13500 kPa | 771.93 ± 0.83
13525 kPa | 772.34 ± 0.83
13550 kPa | 772.7 ± 0.83
13575 kPa | 773.15 ± 0.83
13600 kPa | 773.57 ± 0.83
13625 kPa | 773.92 ± 0.83
13650 kPa | 774.36 ± 0.83
13675 kPa | 774.79 ± 0.83
13700 kPa | 775.16 ± 0.83
13725 kPa | 775.57 ± 0.83
13750 kPa | 776 ± 0.83
13775 kPa | 776.36 ± 0.83
13800 kPa | 776.72 ± 0.83
13825 kPa | 777.12 ± 0.83
13850 kPa | 777.52 ± 0.83
13875 kPa | 777.93 ± 0.83
13900 kPa | 778.33 ± 0.83
13925 kPa | 778.72 ± 0.83
13950 kPa | 779.11 ± 0.83
13975 kPa | 779.47 ± 0.83
14000 kPa | 779.85 ± 0.83
14025 kPa | 780.28 ± 0.83
14050 kPa | 780.67 ± 0.83
14075 kPa | 781.06 ± 0.83
14100 kPa | 781.44 ± 0.83
14125 kPa | 781.8 ± 0.83
14150 kPa | 782.18 ± 0.83
14175 kPa | 782.55 ± 0.83
14200 kPa | 782.93 ± 0.83
14225 kPa | 783.28 ± 0.83
14250 kPa | 783.65 ± 0.83
14275 kPa | 784.01 ± 0.83
14300 kPa | 784.39 ± 0.83
14325 kPa | 784.77 ± 0.83
14350 kPa | 785.15 ± 0.83
14375 kPa | 785.52 ± 0.83
14400 kPa | 785.88 ± 0.83
14425 kPa | 786.27 ± 0.83
14450 kPa | 786.66 ± 0.83
14475 kPa | 787.01 ± 0.83
14500 kPa | 787.34 ± 0.83
14525 kPa | 787.73 ± 0.83
14550 kPa | 788.05 ± 0.83
14575 kPa | 788.43 ± 0.83
14600 kPa | 788.78 ± 0.83
14625 kPa | 789.1 ± 0.83
14650 kPa | 789.51 ± 0.83
14675 kPa | 789.86 ± 0.83
14700 kPa | 790.23 ± 0.83
14725 kPa | 790.55 ± 0.83
14750 kPa | 790.91 ± 0.83
14775 kPa | 791.25 ± 0.83
14800 kPa | 791.65 ± 0.83
14825 kPa | 791.96 ± 0.83
14850 kPa | 792.31 ± 0.83
14875 kPa | 792.64 ± 0.83
14900 kPa | 793.03 ± 0.83
14925 kPa | 793.37 ± 0.83
14950 kPa | 793.74 ± 0.83
14975 kPa | 794.09 ± 0.83
15000 kPa | 794.4 ± 0.83
15025 kPa | 794.78 ± 0.83
15050 kPa | 795.16 ± 0.83
15075 kPa | 795.5 ± 0.83
15100 kPa | 795.8 ± 0.83
15125 kPa | 796.2 ± 0.83
15150 kPa | 796.56 ± 0.83
15175 kPa | 796.89 ± 0.83
15200 kPa | 797.19 ± 0.83
15225 kPa | 797.52 ± 0.83
15250 kPa | 797.89 ± 0.83
15275 kPa | 798.26 ± 0.83
15300 kPa | 798.53 ± 0.83
15325 kPa | 798.91 ± 0.83
15350 kPa | 799.22 ± 0.83
15375 kPa | 799.54 ± 0.83
15400 kPa | 799.88 ± 0.83
15425 kPa | 800.19 ± 0.83
15450 kPa | 800.53 ± 0.83
15475 kPa | 800.87 ± 0.83
15500 kPa | 801.17 ± 0.83
15525 kPa | 801.53 ± 0.83
15550 kPa | 801.84 ± 0.83
15575 kPa | 802.17 ± 0.83
15600 kPa | 802.47 ± 0.83
15625 kPa | 802.79 ± 0.83
15650 kPa | 803.12 ± 0.83
15675 kPa | 803.42 ± 0.83
15700 kPa | 803.73 ± 0.83
15725 kPa | 804.02 ± 0.83
15750 kPa | 804.34 ± 0.83
15775 kPa | 804.65 ± 0.83
15800 kPa | 804.99 ± 0.83
15825 kPa | 805.27 ± 0.83
15850 kPa | 805.58 ± 0.83
15875 kPa | 805.91 ± 0.83
15900 kPa | 806.23 ± 0.83
15925 kPa | 806.51 ± 0.83
15950 kPa | 806.83 ± 0.83
15975 kPa | 807.09 ± 0.83
16000 kPa | 807.41 ± 0.83
16025 kPa | 807.71 ± 0.83
16050 kPa | 807.98 ± 0.83
16075 kPa | 808.29 ± 0.83
16100 kPa | 808.61 ± 0.83
16125 kPa | 808.91 ± 0.83
16150 kPa | 809.2 ± 0.83
16175 kPa | 809.5 ± 0.83
16200 kPa | 809.79 ± 0.83
16225 kPa | 810.09 ± 0.83
16250 kPa | 810.39 ± 0.83
16275 kPa | 810.69 ± 0.83
16300 kPa | 810.98 ± 0.83
16325 kPa | 811.27 ± 0.83
16350 kPa | 811.55 ± 0.83
16375 kPa | 811.82 ± 0.83
16400 kPa | 812.11 ± 0.83
16425 kPa | 812.38 ± 0.83
16450 kPa | 812.66 ± 0.83
16475 kPa | 812.9 ± 0.83
16500 kPa | 813.24 ± 0.83
16525 kPa | 813.5 ± 0.83
16550 kPa | 813.76 ± 0.83
16575 kPa | 814.03 ± 0.83
16600 kPa | 814.33 ± 0.83
16625 kPa | 814.6 ± 0.83
16650 kPa | 814.87 ± 0.83
16675 kPa | 815.12 ± 0.83
16700 kPa | 815.43 ± 0.83
16725 kPa | 815.67 ± 0.83
16750 kPa | 815.94 ± 0.83
16775 kPa | 816.22 ± 0.83
16800 kPa | 816.46 ± 0.83
16825 kPa | 816.74 ± 0.83
16850 kPa | 817 ± 0.83
16875 kPa | 817.27 ± 0.83
16900 kPa | 817.54 ± 0.83
16925 kPa | 817.8 ± 0.83
16950 kPa | 818.05 ± 0.83
16975 kPa | 818.28 ± 0.83
17000 kPa | 818.55 ± 0.83
17025 kPa | 818.81 ± 0.83
17050 kPa | 819.06 ± 0.83
17075 kPa | 819.27 ± 0.83
17100 kPa | 819.55 ± 0.83
17125 kPa | 819.79 ± 0.83
17150 kPa | 820.09 ± 0.83
17175 kPa | 820.32 ± 0.83
17200 kPa | 820.54 ± 0.83
17225 kPa | 820.77 ± 0.83
